Assays:
Type in all cases: in vivo
Design in all cases: key: 0 is no effect; 10 is complete control
[1] = system: sugar beet (Beta vulgaris); assay: Test B pre-/postemergence
Summary of the method: (§1)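 Seeds were planted and sprayed preemergence, while plants at 2 to 18 cm (1- to 4-leaf stage) were sprayed postemergence at the same time, with test chemical in a non-phytotoxic solvent mixture containing surfactant. After twelve to sixteen days in a greenhouse, injury was rated visually against untreated controls on a 0–10 scale.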

[2] = system: pigweed (Amaranthus retroflexus); assay: Test B pre-/postemergence
Summary of the method: as §1

rape (Brassica napus) = assay: Test B pre-/postemergence
Summary of the method: as §1

[3] = system: crabgrass (Digitaria sanguinalis); assay: Test B pre-/postemergence
Summary of the method: as §1

wild oat (Avena fatua) = assay: Test B pre-/postemergence
Summary of the method: as §1

[4] = system: bedstraw (Galium aparine); assay: Test B pre-/postemergence
Summary of the method: as §1

[5] = system: blackgrass (Alopecurus myosuroides); assay: Test B pre-/postemergence
Summary of the method: as §1

[6] = system: wheat (Triticum aestivum); assay: Test B pre-/postemergence
Summary of the method: as §1

[7] = system: momingglory (Ipomoea hederacea); assay: Test B pre-/postemergence
Summary of the method: as §1

[8] = system: broadleaf signalgrass (Brachiaria decumbens); assay: Test B pre-/postemergence
Summary of the method: as §1

[9] = system: velvetleaf (Abutilon theophrasti); assay: Test B pre-/postemergence
Summary of the method: as §1

[10] = system: purple nutsedge (Cyperus rotundus); assay: Test B pre-/postemergence
Summary of the method: as §1

soybean (Glycine max) = assay: Test B pre-/postemergence
Summary of the method: as §1

[11] = system: cocklebur (Xanthium strumarium); assay: Test B pre-/postemergence
Summary of the method: as §1

[12] = system: giant foxtail (Setaria faberii); assay: Test B pre-/postemergence
Summary of the method: as §1

corn (Zea mays) = assay: Test B pre-/postemergence
Summary of the method: as §1

rice (Oryza sativa) = assay: Test B flood test
Summary of the method: (§2)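 Plants were grown to the 2-leaf stage before treatment with test chemical, then held in a greenhouse for twelve to sixteen days. Injury was visually rated against untreated controls on a 0–10 scale, where 0 is no effect and 10 is complete control.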

[13] = system: smallflower flatsedge (Cyperus difformis); assay: Test B flood test
Summary of the method: as §2

[14] = system: bamyardgrass (Echinochloa crus-galli); assay: Test B flood test
Summary of the method: as §2

[15] = system: duck salad (Heteranthera limosa); assay: Test B flood test
Summary of the method: as §2

[16] = Preemergence, Rate 62 g/ha, scale of 0 to 10
[17] = Rate 62 g/ha, Postemergence (flood test)
[18] = Rate 125 g/ha, Postemergence section (flood test species)
[19] = Rate 250 g/ha, Postemergence (flood test species)

Compound: COc1cnc(-n2ccc(C(F)(F)F)n2)nc1C(=O)c1cccc(C(F)(F)F)c1 [Compound 60]
- Plant response rating, Sugarbeets [1, 16]: 6
- Sugarbeets plant response rating ([1]; Rate 62 g/ha, Postemergence): 8
- Sugarbeets plant response rating ([1]; Rate 125 g/ha, Postemergence): 8
- Plant response rating, Sugarbeets ([1]; Rate 125 g/ha, Preemergence): 8
- Plant response rating, Sugarbeets ([1]; Rate 250 g/ha, Postemergence): 9
- Plant response rating, Sugarbeets ([1]; Rate 250 g/ha, Preemergence): 9
- Plant response rating, Redroot pigweed [2, 16]: 6
- Redroot pigweed plant response rating ([2]; Rate 62 g/ha, Postemergence): 5
- Redroot pigweed plant response rating ([2]; Rate 125 g/ha, Postemergence): 7
- Plant response rating, Redroot pigweed ([2]; Rate 125 g/ha, Preemergence): 9
- Plant response rating, Redroot pigweed ([2]; Rate 250 g/ha, Postemergence): 7
- Plant response rating, Redroot pigweed ([2]; Rate 250 g/ha, Preemergence): 10
- Plant response rating, Rape (rape (Brassica napus); [16]): 0
- Rape plant response rating (rape (Brassica napus); Rate 62 g/ha, Postemergence): 3
- Rape plant response rating (rape (Brassica napus); Rate 125 g/ha, Postemergence): 3
- Plant response rating, Rape (rape (Brassica napus); Rate 125 g/ha, Preemergence): 0
- Plant response rating, Rape (rape (Brassica napus); Rate 250 g/ha, Postemergence): 4
- Plant response rating, Rape (rape (Brassica napus); Rate 250 g/ha, Preemergence): 1
- Plant response rating, Crabgrass [3, 16]: 0
- Crabgrass plant response rating ([3]; Rate 62 g/ha, Postemergence): 2
- Crabgrass plant response rating ([3]; Rate 125 g/ha, Postemergence): 3
- Plant response rating, Crabgrass ([3]; Rate 125 g/ha, Preemergence): 2
- Plant response rating, Crabgrass ([3]; Rate 250 g/ha, Postemergence): 4
- Plant response rating, Crabgrass ([3]; Rate 250 g/ha, Preemergence): 6
- Plant response rating, Wild oats (wild oat (Avena fatua); [16]): 0
- Wild oats plant response rating (wild oat (Avena fatua); Rate 62 g/ha, Postemergence): 2
- Wild oats plant response rating (wild oat (Avena fatua); Rate 125 g/ha, Postemergence): 2
- Plant response rating, Wild oats (wild oat (Avena fatua); Rate 125 g/ha, Preemergence): 0
- Plant response rating, Wild oats (wild oat (Avena fatua); Rate 250 g/ha, Postemergence): 2
- Plant response rating, Wild oats (wild oat (Avena fatua); Rate 250 g/ha, Preemergence): 0
- Plant response rating, Bedstraw [4, 16]: 0
- Bedstraw plant response rating ([4]; Rate 62 g/ha, Postemergence): 2
- Bedstraw plant response rating ([4]; Rate 125 g/ha, Postemergence): 3
- Plant response rating, Bedstraw ([4]; Rate 125 g/ha, Preemergence): 0
- Plant response rating, Bedstraw ([4]; Rate 250 g/ha, Postemergence): 3
- Plant response rating, Bedstraw ([4]; Rate 250 g/ha, Preemergence): 1
- Plant response rating, Blackgrass [5, 16]: 1
- Blackgrass plant response rating ([5]; Rate 62 g/ha, Postemergence): 1
- Blackgrass plant response rating ([5]; Rate 125 g/ha, Postemergence): 1
- Plant response rating, Blackgrass ([5]; Rate 125 g/ha, Preemergence): 1
- Plant response rating, Blackgrass ([5]; Rate 250 g/ha, Postemergence): 2
- Plant response rating, Blackgrass ([5]; Rate 250 g/ha, Preemergence): 2
- Plant response rating, Wheat [6, 16]: 0
- Wheat plant response rating ([6]; Rate 62 g/ha, Postemergence): 2
- Wheat plant response rating ([6]; Rate 125 g/ha, Postemergence): 3
- Plant response rating, Wheat ([6]; Rate 125 g/ha, Preemergence): 0
- Plant response rating, Wheat ([6]; Rate 250 g/ha, Postemergence): 3
- Plant response rating, Wheat ([6]; Rate 250 g/ha, Preemergence): 0
- Plant response rating, Morningglory [7, 16]: 1
- Morningglory plant response rating ([7]; Rate 62 g/ha, Postemergence): 2
- Morningglory plant response rating ([7]; Rate 125 g/ha, Postemergence): 4
- Plant response rating, Morningglory ([7]; Rate 125 g/ha, Preemergence): 2
- Plant response rating, Morningglory ([7]; Rate 250 g/ha, Postemergence): 9
- Plant response rating, Morningglory ([7]; Rate 250 g/ha, Preemergence): 5
- B. signalgrass plant response rating ([8]; Rate 62 g/ha, Postemergence): 2
- B. signalgrass plant response rating ([8]; Rate 62 g/ha, Preemergence): 2
- B. signalgrass plant response rating ([8]; Rate 125 g/ha, Postemergence): 2
- Plant response rating, B. signalgrass ([8]; Rate 125 g/ha, Preemergence): 3
- Plant response rating, B. signalgrass ([8]; Rate 250 g/ha, Postemergence): 3
- Plant response rating, B. signalgrass ([8]; Rate 250 g/ha, Preemergence): 3
- Plant response rating, Velvetleaf [9, 16]: 1
- Velvetleaf plant response rating ([9]; Rate 62 g/ha, Postemergence): 2
- Velvetleaf plant response rating ([9]; Rate 125 g/ha, Postemergence): 2
- Plant response rating, Velvetleaf ([9]; Rate 125 g/ha, Preemergence): 1
- Plant response rating, Velvetleaf ([9]; Rate 250 g/ha, Postemergence): 2
- Plant response rating, Velvetleaf ([9]; Rate 250 g/ha, Preemergence): 1
- Plant response rating, Nutsedge [10, 16]: 0
- Nutsedge plant response rating ([10]; Rate 62 g/ha, Postemergence): 0
- Nutsedge plant response rating ([10]; Rate 125 g/ha, Postemergence): 0
- Plant response rating, Nutsedge ([10]; Rate 125 g/ha, Preemergence): 0
- Plant response rating, Nutsedge ([10]; Rate 250 g/ha, Postemergence): 0
- Plant response rating, Soybean (soybean (Glycine max); [16]): 0
- Soybean plant response rating (soybean (Glycine max); Rate 62 g/ha, Postemergence): 2
- Soybean plant response rating (soybean (Glycine max); Rate 125 g/ha, Postemergence): 2
- Plant response rating, Soybean (soybean (Glycine max); Rate 125 g/ha, Preemergence): 0
- Plant response rating, Soybean (soybean (Glycine max); Rate 250 g/ha, Postemergence): 2
- Plant response rating, Soybean (soybean (Glycine max); Rate 250 g/ha, Preemergence): 0
- Plant response rating, Cocklebur [11, 16]: 0
- Cocklebur plant response rating ([11]; Rate 62 g/ha, Postemergence): 3
- Cocklebur plant response rating ([11]; Rate 125 g/ha, Postemergence): 3
- Plant response rating, Cocklebur ([11]; Rate 125 g/ha, Preemergence): 0
- Plant response rating, Cocklebur ([11]; Rate 250 g/ha, Postemergence): 4
- Plant response rating, Cocklebur ([11]; Rate 250 g/ha, Preemergence): 0
- Plant response rating, Giant foxtail [12, 16]: 2
- Giant foxtail plant response rating ([12]; Rate 62 g/ha, Postemergence): 2
- Giant foxtail plant response rating ([12]; Rate 125 g/ha, Postemergence): 2
- Plant response rating, Giant foxtail ([12]; Rate 125 g/ha, Preemergence): 2
- Plant response rating, Giant foxtail ([12]; Rate 250 g/ha, Postemergence): 2
- Plant response rating, Giant foxtail ([12]; Rate 250 g/ha, Preemergence): 5
- Plant response rating, Corn (corn (Zea mays); [16]): 0
- Corn plant response rating (corn (Zea mays); Rate 62 g/ha, Postemergence): 2
- Corn plant response rating (corn (Zea mays); Rate 125 g/ha, Postemergence): 2
- Plant response rating, Corn (corn (Zea mays); Rate 125 g/ha, Preemergence): 0
- Plant response rating, Corn (corn (Zea mays); Rate 250 g/ha, Postemergence): 3
- Plant response rating, Corn (corn (Zea mays); Rate 250 g/ha, Preemergence): 0
- Rice plant response rating (rice (Oryza sativa); [17]): 0
- Rice plant response rating (rice (Oryza sativa); [18]): 0
- Plant response rating, Rice (rice (Oryza sativa); [19]): 1
- S. Flatsedge plant response rating [13, 17]: 4
- S. Flatsedge plant response rating [13, 18]: 5
- Plant response rating, S. Flatsedge [13, 19]: 6
- Barnyardgrass plant response rating [14, 17]: 1
- Barnyardgrass plant response rating [14, 18]: 1
- Plant response rating, Barnyardgrass [14, 19]: 2
- Ducksalad plant response rating [15, 17]: 1
- Ducksalad plant response rating [15, 18]: 2
- Plant response rating, Ducksalad [15, 19]: 2
